In patent US11191738B2, “Use of tamoxifen for the treatment of cystic fibrosis in patients of both sexes” (GB PHARMA S.R.L., priority 2016, dated 2021):

Legend:
[1] = system: Ca-dependent chloride channels; assay: patch clamp, perforated whole-cell configuration, chloride currents in CF bronchial epithelial cells; type: cell-based
Method: Our experiments were carried out on homozygous CFBE cells leading the F508del/F508 del mutation and on IB3-1 cells (immortalized cell line of bronchial epithelium cystic fibrosis cells, which bring F508del/W1282X mutation).
(§1) The chloride currents through the Ca-dependent chloride channels were measured using the patch clamp technique in perforated whole-cell configuration. The whole-cell configuration was obtained not by breaking the membrane below the electrode, but thanks to the action of an ionophore (gramicidin, 10 μg/ml) which, forming pores through the membrane, guarantees electrical continuity between the solution for the electrode and the cytoplasm, while maintaining the cellular integrity. Thus, cytoplasmic components that might be important to the maintenance of channel activity are not removed after dialysis of the cytoplasm with the solution contained in the electrode. […]
The solution for the electrode contained (mM): 145 KCl, 1 MgCl2, 10 HEPES, pH 7,25. […] The bath solution was hypertonic (measured osmolarity 337 mOsm) with respect to that of the electrode to inhibit the currents activated by swelling, present in the cells used also in isosmolarity conditions of the bath solution (as noted in previously carried out whole-cell experiments). […]

CFTR channel = target: T1, CFTR channel (Homo sapiens, UniProt P13569, DEL508-508); assay: patch clamp chloride currents in tamoxifen-treated cells with CFTR inhibitor; type: cell-based; settings: cells treated with tamoxifen 5 μM for 24 hours, then tamoxifen + CFTR inh (FIG. 3)
T1 construct: having recorded the I/V in cells treated with tamoxifen for 24 hours; endogenous in cells; host or cells: CFBE (F508del/F508del) or IB3-1 (F508del/W1282X) cells
T1 sequence (P13569 with tags, fused parts or gaps DEL508-508): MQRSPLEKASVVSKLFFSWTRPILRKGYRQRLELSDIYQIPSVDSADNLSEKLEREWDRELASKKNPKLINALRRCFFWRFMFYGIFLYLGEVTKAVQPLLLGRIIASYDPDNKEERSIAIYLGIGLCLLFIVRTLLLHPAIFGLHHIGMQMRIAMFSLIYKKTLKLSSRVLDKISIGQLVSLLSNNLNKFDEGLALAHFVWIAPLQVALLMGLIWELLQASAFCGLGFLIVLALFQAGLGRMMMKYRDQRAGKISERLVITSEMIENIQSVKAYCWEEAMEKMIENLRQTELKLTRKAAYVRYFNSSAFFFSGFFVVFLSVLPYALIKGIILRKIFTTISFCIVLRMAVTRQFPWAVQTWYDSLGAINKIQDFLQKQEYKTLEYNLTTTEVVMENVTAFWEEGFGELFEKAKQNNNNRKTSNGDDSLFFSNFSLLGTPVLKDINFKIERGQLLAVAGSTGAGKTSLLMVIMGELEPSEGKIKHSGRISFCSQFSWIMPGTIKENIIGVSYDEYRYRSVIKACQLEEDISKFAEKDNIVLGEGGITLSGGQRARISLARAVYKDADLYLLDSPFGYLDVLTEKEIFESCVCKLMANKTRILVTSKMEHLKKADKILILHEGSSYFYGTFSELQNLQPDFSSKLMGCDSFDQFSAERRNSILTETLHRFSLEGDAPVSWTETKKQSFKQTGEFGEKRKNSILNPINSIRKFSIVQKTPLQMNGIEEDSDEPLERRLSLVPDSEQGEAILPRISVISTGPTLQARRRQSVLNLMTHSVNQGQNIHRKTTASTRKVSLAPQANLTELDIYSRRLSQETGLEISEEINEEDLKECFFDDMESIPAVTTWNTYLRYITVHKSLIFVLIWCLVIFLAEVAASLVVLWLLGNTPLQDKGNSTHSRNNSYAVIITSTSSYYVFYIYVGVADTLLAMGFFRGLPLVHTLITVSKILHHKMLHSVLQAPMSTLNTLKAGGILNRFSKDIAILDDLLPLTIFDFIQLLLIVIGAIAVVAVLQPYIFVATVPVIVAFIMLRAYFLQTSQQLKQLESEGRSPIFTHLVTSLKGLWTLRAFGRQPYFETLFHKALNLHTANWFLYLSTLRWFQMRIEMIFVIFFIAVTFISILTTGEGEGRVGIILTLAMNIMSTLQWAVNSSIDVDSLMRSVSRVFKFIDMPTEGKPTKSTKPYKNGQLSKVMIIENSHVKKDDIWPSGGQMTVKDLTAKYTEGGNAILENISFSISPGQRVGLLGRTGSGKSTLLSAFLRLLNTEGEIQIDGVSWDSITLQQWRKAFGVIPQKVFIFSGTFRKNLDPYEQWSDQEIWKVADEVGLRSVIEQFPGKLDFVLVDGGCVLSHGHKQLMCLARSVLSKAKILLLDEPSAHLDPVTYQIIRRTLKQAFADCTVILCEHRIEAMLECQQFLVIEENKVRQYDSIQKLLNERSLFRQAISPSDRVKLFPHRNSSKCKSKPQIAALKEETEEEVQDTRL
Method: as §1
The solution for the electrode contained (mM): 145 KCl, 1 MgCl2, 10 HEPES, pH 7,25. […] The bath solution was hypertonic (measured osmolarity 337 mOsm) with respect to that of the electrode to inhibit the currents activated by swelling, present in the cells used also in isosmolarity conditions of the bath solution (as noted in previously carried out whole-cell experiments).
Finally, in order to evaluate a possible action of tamoxifen on the CFTR channel, having recorded the I/V in cells treated with tamoxifen for 24 hours, the replacement of the solution with one containing tamoxifen and CFTR inh (specific inhibitor of CFTR) (FIG. 3) was carried out.

SMILES: CC/C(=C(\c1ccccc1)c1ccc(OCCN(C)C)cc1)c1ccccc1 [tamoxifen]
- current density compared to control conditions ([1]; CFBE or IB3-1 cells incubated 40 minutes with tamoxifen 5 μM (FIG. 1)): significantly increased
- effect on Ca-dependent chloride currents over time ([1]; cells incubated with 5 μM tamoxifen for 24 hours (FIG. 2)): remains almost unchanged over time
- effect on chloride currents in the presence of the inhibitor of CFTR (CFTR channel): does not change significantly
